For orientation: EC50 means the midpoint of the concentration-response curve. A higher EC50 goes with weaker potency.

Where a name gives a salt, the structure may show the parent alone.

The subject of one assay is HepG2 cell line. Kind of assay: CellTiter-Glo growth inhibition assay, HepG2. The assay is classed as cell-based. Conditions: Homo sapiens; HepG2, hepatocellular carcinoma, 72 h. The procedure: (§1) All cell lines were maintained in medium containing 1% penicillin-streptomycin (Dutscher, P06-07100) and 10% Fetal Bovine Serum (Gibco, W3387L) except 20% for KG-1 cell line and PBMC, and cultured at 37° C. with 5% CO2.
HepG2, Huh7, HCT-116, MDA-MB-231 and A375 cell lines were cultured in Dulbecco's modified Eagle's medium (Dutscher, L0103).
(§2) Cell viability was measured using the CellTiter-Glo® luminescent cell viability assay as described by the manufacturer (Promega, Ref G7571) using an Infinite F200Pro luminometer (Tecan). Briefly, for adherent cells, cells were plated onto 96-well plates (white with clear bottom) in 90 μL of media per well and were allowed to grow overnight before the assay. For cells growing in suspension, cells were plated onto 96-well plates immediately before the assay.
Compounds were added at different concentrations to each well, and cell cultures were incubated for 72 h. Vehicle (H2O) was used as a control, and all compounds were tested in a constant percentage of H2O. After addition of 100 μL of CellTiter-Glo®, luminescence was measured using an Infinite F200Pro (Tecan). EC50 values were determined as the dose of compound required to reduce luminescent values to 50% of the signal obtained for untreated cell cultures. The experimental data were analyzed using a computer program, Graphpad Prism v5 (GraphPad Software, Inc. La Jolla, Calif.). […]

For assay [1], the system named is LI0050 HCC patient derived cells. Nature of the assay: CellTiter-Glo growth inhibition, HCC patient-derived cells LI0050. The class given is cell-based, human. Conditions: Homo sapiens; LI0050, 72 hours. The procedure:
(§3) The patient derived Hepatocellular Carcinoma (HCC) cells were maintained in medium respectively described in table 15 containing 1% penicillin-streptomycin (Life Technologies, 15070-063), with a supplements for primary cell culture (PCS) containing hydrocortisone (50 nM), Epidermal Growth Factor (20 ng/ml), β-fibroblast Growth Factor (10 ng/ml), Heparin (2 μg/ml) ITS liquid media supplement (1×) and non-essential amino acid (NEAA, 0.01 mM, 1×). The primary cell were cultured in a humidified atmosphere (95% relative humidity) with 5% CO2 at 37° C.
(§4) The cell growth inhibition assay was performed as described previously in example 5 using the CellTiter-Glo® luminescent cell viability assay as described by the manufacturer (Promega, Ref G7571). The number of cells seeded per well (in 96-Well Flat Clear Bottom Black Polystyrene TC-Treated Microplates, Cat #3340, Corning®) is described in the table 16. A backseal black sticker (Cat #6005189, Perkin Elmer) was placed to the bottom of each plate before recording CellTiter-Glo® luminescence.
(§5) The experimental data are analyzed using a computer program, Graphpad Prism V 5.0 (GraphPad Software, Inc. La Jolla, Calif.) and EC50 values were determined as the dose of compound required to reduce absorbance values to 50% of the signal obtained for vehicle treated cell cultures and were a mean of at least three independent experiments.
For orientation: ATP-based viability assays read luminescence as a measure of living cells.

The subject of assay [2] is LI1005 HCC patient derived cells. Kind of assay: CellTiter-Glo growth inhibition, HCC patient-derived cells LI1005. The class given is cell-based, human. Conditions: Homo sapiens; LI1005, 72 hours. The procedure:
as §3, §4, §5

For assay [3], the system named is LI1646 HCC patient derived cells. Kind of assay: CellTiter-Glo growth inhibition, HCC patient-derived cells LI1646. Conditions: Homo sapiens; LI1646, 72 hours. The class given is cell-based, human. The procedure: as §3, §4, §5
Another assay concerns MRC-5 cell line. Kind of assay: CellTiter-Glo growth inhibition assay, MRC-5. The assay is classed as cell-based. Conditions: MRC5; MRC-5, human fetal lung fibroblast, 72 h. Here is the method: as §1
MRC-5 cell line was maintained in MEM (Dutscher, L0416).
as §2
Compounds were added at different concentrations to each well, and cell cultures were incubated for 72 h. Vehicle (H2O) was used as a control, and all compounds were tested in a constant percentage of H2O. After addition of 100 μL of CellTiter-Glo®, luminescence was measured using an Infinite F200Pro (Tecan). EC50 values were determined as the dose of compound required to reduce luminescent values to 50% of the signal obtained for untreated cell cultures. The experimental data were analyzed using a computer program, Graphpad Prism v5 (GraphPad Software, Inc. La Jolla, Calif.).
All experiments were at least done in duplicate and repeated two independent times.

The test system of assay [4] is ALDH+ (CSC) population of MOLM-14 cell line. Kind of assay: Aldefluor kit assay, ALDH+ compartment in MOLM-14. The class given is cell-based, human. Conditions: 72 h, control = 100. The source says: Analysis of the of aldehyde dehydrogenase (ALDH) compartment and high activity level of aldehyde dehydrogenase activity (ALDH+) was used to detect tumor initiating cells (cancer stem cells, CSC) population. The Aldefluor™ kit assay (StemCell Technologies, 01700) allowed to assess the activity of drugs on CSC cells like in a MOLM-14 acute myeloid leukemia cell line population (ref: Storms, R. W., Trujillo, A. P., Springer, J. B., Shah, L., Colvin, O. M., Ludeman, S. M., & Smith, C. (1999). Isolation of primitive human hematopoietic progenitors on the basis of aldehyde dehydrogenase activity. Proceedings of the National Academy of Sciences, 96(16), 9118-9123). The Aldefluor™ kit assay was used according to the procedure described by the manufacturer. Briefly, MOLM-14 cell line was cultured in MEM alpha medium supplemented with 10% v/v Fetal Bovine Serum, 1% Penicillin-Streptomycin and maintained at 37° C. with 5% CO2. 5·10^5 cells were used in this assay. Each compound was added at different concentrations (see table 8), and cell cultures were incubated for 72 h. Vehicle (H2O) was used as a control, and all compounds were tested in a constant percentage of vehicle. Cells obtained from cell culture were incubated for 45 minutes at 37° C. with Aldefluor™ buffer assay containing the Bodipy™-aminoacetaldehyde, a fluorescent ALDH aldehyde substrate. ALDH converts the fluorescent substrate BAAA to the Bodipy™-aminoacetic acid (BAA) which is retained in the cell. An active efflux inhibitor is present in the Adelfluor™ assay buffer in order to avoid the active efflux from the cell of the substrate product ALDH dependent converted BAA. The fluorescent signal is directly proportional to the ALDH activity in the cells and is measured by flow cytometry. A negative control is used to measure the background fluorescence level. For such purpose, 4-(N,N-diethylamino)-benzaldehyde (DEAB) was used as selective ALDH inhibitor. A viability cell count was performed using LIVE/DEAD® Fixable Far Red Dead Cell Stain Kit (Invitrogen). The experimental data are analyzed using a computer program, Graphpad Prism v5 (GraphPad Software, Inc. La Jolla, Calif.) and EC50 values were determined as the dose of compound required to reduce absorbance values to 50% of the signal obtained for vehicle treated cell cultures.

`CC(C)(C)NC1CCN(c2cc(NCc3ccc(Cl)cc3)nc3ccccc23)CC1` [Compound 2-3, 2-(4-chlorobenzylamino)-4-(4-tert-butylaminopiperidin-1-yl)-quinoline hydrochloride salt]: the EC50 was 0.9 µM with HepG2 cell line; 3.5 µM in assay [1]; 3.2 µM in assay [2]; 1.4 µM in assay [3]; ~3.4 µM in the assay with MRC-5 cell line. The “ALdefluor positive CSCs (%)” value is reported as 100% in assay [4] (MOLM-14, 2.5 μM); 80% in assay [4] (MOLM-14, 5.0 μM); 20% in assay [4] (MOLM-14, 7.5 μM).

These data come from US10722505B2, “Substituted 2,4 diamino-quinoline as new anticancer agents” (GENOSCIENCE PHARMA, priority 2014, dated 2020).
